Laboratory results taken from patent publication US7348425B2, “Inhibitors of HCV replication” (Bristol-Myers Squibb Company, priority 2004, dated 2008).

Columns and labels:
HCV replicon [1] = experiment: HCV replicon luciferase assay; assay type: cell-based, Hepatitis C virus; settings: Hepatitis C virus, cells marked **: Luciferase assay; read-out: EC50
Experimental: To prepare plates, HCV replicon cells, with or without a Renilla luciferase reporter gene, were trypsinized and placed into each well of a 96-well plate with titrated test compounds added in columns 3 through 12; columns 1 and 2 contained a control compound (HCV protease inhibitor), and the bottom row contained cells without compound. The plates were then placed in a CO2 incubator at 37 degrees C.
Assays. Subsequent to addition of the test compounds described above (FRET Assay Preparation), at various times the plate was removed and Alamar blue solution (Trek Diagnostics, #00-100) was added per well as a measure of cellular toxicity. After reading in a Cytoflour 4000 instrument (PE Biosystems), plates were rinsed with PBS and then used for FRET assay by the addition of 30 ul of the FRET peptide assay reagent described above (FRET Assay Preparation) per well. The plate was then placed into the Cytoflour 4000 instrument which had been set to 340 excite/490 emission, automatic mode for 20 cycles and the plate read in a kinetic mode. Typically, the signal to noise using an endpoint analysis after the reads was at least three-fold. Alternatively, after Alamar blue reading, plates were rinsed with PBS, 50 ul of DMEM (high glucose) without phenol red was added and plates were then used for luciferase assay using the Promega Dual-Glo Luciferase Assay System.
Compound analysis was determined by quantification of the relative HCV replicon inhibition and the relative cytotoxicity values. To calculate cytoxicity values, the average Alamar Blue fluorescence signals from the control wells were set as 100% non-toxic. The individual signals in each of the compound test wells were then divided by the average control signal and multiplied by 100% to determine […]. To calculate the HCV replicon inhibition values, an average background value was obtained from the two wells containing the highest amount of HCV protease inhibitor at the end of the assay period. These numbers were similar to those obtained from naïve Huh-7 cells.
The background numbers were then subtracted from the average signal obtained from the control wells and this number was used as 100% activity. The individual signals in each of the compound test wells were then divided by the averaged control values after background subtraction and multiplied by 100% to determine percent activity. EC50 values for a protease inhibitor titration were calculated as the concentration which caused a 50% reduction in FRET or luciferase activity. The two numbers generated for the compound plate, percent cytoxicity and percent activity were used to determine compounds of interest for further analysis.

[2] = target: T1, HCV NS5B RdRp genotype 1b (Hepatitis C virus genotype 1b, UniProt Q9WMX2); experiment: Modified HCV NS5B RdRp enzyme assay (with preincubation); assay type: biochemical; settings: preincubation protocol
T1 construct: The protein was expressed with an 18 amino acid C-terminal truncation to enhance the solubility; made in house; host or cells: E. coli BL21 (DE3), pET21a
Procedure, shortened: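 Seven-point IC50s were derived from SPA-based ³H-UTP incorporation after 4 h at 30 °C (Hepes pH 7.5, 2% DMSO). Compound was first mixed with 14 nM Δ18 NS5B genotype 1b enzyme. Then 0.2 nM polyA, 0.29 μM UTP and bead-bound oligo-dT12 (20 nM) were added.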

HCV replicon [3] = experiment: HCV replicon FRET assay; assay type: cell-based; settings: Hepatitis C virus; FRET assay; read-out: EC50
Procedure, shortened: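 Replicon cells (± Renilla luciferase reporter) incubated with titrated compound at 37 °C; NS3 protease activity read by FRET peptide cleavage (20 uM EDANS/DABCYL substrate, 340/490 nm kinetic) or luciferase.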

T1 sequence (Q9WMX2 2420-2992): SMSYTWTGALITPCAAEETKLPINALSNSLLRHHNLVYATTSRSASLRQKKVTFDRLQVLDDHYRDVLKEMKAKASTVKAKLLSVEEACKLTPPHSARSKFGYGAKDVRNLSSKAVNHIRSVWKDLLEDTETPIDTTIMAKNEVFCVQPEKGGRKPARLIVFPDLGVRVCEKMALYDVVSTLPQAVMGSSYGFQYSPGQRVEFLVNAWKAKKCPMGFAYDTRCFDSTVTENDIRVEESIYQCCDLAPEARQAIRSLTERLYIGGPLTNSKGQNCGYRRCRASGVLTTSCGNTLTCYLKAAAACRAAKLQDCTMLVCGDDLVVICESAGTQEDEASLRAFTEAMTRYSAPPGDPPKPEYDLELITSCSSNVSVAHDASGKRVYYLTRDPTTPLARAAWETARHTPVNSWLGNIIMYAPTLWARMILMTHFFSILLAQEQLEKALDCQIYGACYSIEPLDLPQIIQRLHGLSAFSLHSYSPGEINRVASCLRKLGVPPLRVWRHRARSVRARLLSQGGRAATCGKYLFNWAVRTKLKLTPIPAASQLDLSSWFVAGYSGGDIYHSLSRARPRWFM

Structure (SMILES)	EC50 (HCV replicon [1]) [nM]	IC50 [2] [nM]	EC50 (HCV replicon [3]) [nM]
COC(=O)c1ccc2c(C3CCCCC3)c3n(c2c1)CC(=O)N3Cc1ccccc1	1000 to 10000		
O=C(O)c1ccc2c(C3CCCCC3)c3n(c2c1)CC(=O)N3Cc1ccccc1	> 10000		
COC(=O)c1ccc2c(C3CCCCC3)c3n(c2c1)CC(=O)N3	1000 to 10000		
CC(C)(C)OC(=O)/C=C/c1ccc(NC(=O)C2(NC(=O)c3ccc4c(C5CCCCC5)c5n(c4c3)CC(=O)N5Cc3ccccc3)CCCC2)cc1	> 10000		
CCOC(=O)/C=C/c1ccc(NC(=O)C2(NC(=O)c3ccc4c(C5CCCCC5)c5n(c4c3)CC(=O)Nc3ccccc3-5)CCCC2)cc1	10 to 1000		
O=C(O)c1ccc2c(C3CCCCC3)c3n(c2c1)CC/C=C\Nc1ccccc1-3	1000 to 10000		
Cn1c(-c2ccccc2)c(C2CCCCC2)c2ccc(C(=O)NC3(c4nnnn4CC(=O)O)CCCC3)cc21	> 10000		
COC(=O)c1ccc2c(C3CCCCC3)c3n(c2c1)CC(=O)N3c1ccccc1	> 10000		
COc1ccc2c(c1)C=C(C(=O)N1CCOCC1)Cn1c-2c(C2CCCCC2)c2ccc(C(=O)NS(=O)(=O)C3CC3)cc21		10 to 1000	50 to 1000
COc1ccc2c(c1)C=C(C(=O)N1CCC[C@@H](O)C1)Cn1c-2c(C2CCCCC2)c2ccc(C(=O)NS(=O)(=O)N(C)C)cc21		10 to 1000	50 to 1000
C[C@@H]1CN(C(=O)C2(F)Cc3ccccc3-c3c(C4CCCCC4)c4ccc(C(=O)O)cc4n3C2)C[C@H](O)O1 (stereo partly shown)		10 to 1000	1000 to 10000
C[C@@H]1CN(C(=O)C2=Cc3ccccc3-c3c(C4CCCCC4)c4ccc(C(=O)NC5(C(=O)Nc6ccc(-c7cnco7)cc6)CCCC5)cc4n3C2)C[C@H](C)O1		10 to 1000	50 to 1000
C[C@@H]1CN(C(=O)C2=Cc3ccccc3-c3c(C4CCCCC4)c4ccc(C(=O)NC5(C(=O)Nc6ccc(-n7cncn7)cc6)CCCC5)cc4n3C2)C[C@H](C)O1		10 to 1000	50 to 1000
Cc1cc(CNC(=O)c2ccc3c(C4CCCCC4)c4n(c3c2)CC(C(=O)N2C[C@@H](C)O[C@@H](C)C2)=Cc2ccccc2-4)n[nH]1		10 to 1000	50 to 1000
COc1ccc2c(c1)C=C(C(=O)N1CCOC(CN(C)C)C1)Cn1c-2c(C2CCCCC2)c2ccc(C(=O)NS(=O)(=O)N(C)C)cc21 (stereo not shown)		10 to 1000	50 to 1000
COc1ccc2c(c1)C=C(C(=O)N1CCC(O)CC1)Cn1c-2c(C2CCCCC2)c2ccc(C(=O)NS(=O)(=O)N(C)C)cc21		10 to 1000	50 to 1000
COc1ccc2c(c1)C(=O)n1c-2c(C2CCCCC2)c2ccc(C(=O)NS(=O)(=O)N(C)C)cc21		10 to 1000	1000 to 10000
COC(=O)c1ccc2c(C3CCCCC3)c3n(c2c1)CC(C(=O)N1C[C@@H](C)O[C@@H](C)C1)=Cc1cc(F)ccc1-3		> 1000	1000 to 10000
C[C@@H]1CN(C(=O)C2=Cc3cc(F)ccc3-c3c(C4CCCCC4)c4ccc(C(=O)O)cc4n3C2)C[C@H](C)O1		10 to 1000	50 to 1000
C[C@@H]1CN(C(=O)C2=Cc3cc(F)ccc3-c3c(C4CCCCC4)c4ccc(C(=O)NS(=O)(=O)N(C)C)cc4n3C2)C[C@H](C)O1		10 to 1000	50 to 1000
COC(=O)c1ccc2c(C3CCCCC3)c3n(c2c1)CC(C(=O)N1C[C@@H](C)N[C@@H](C)C1)=Cc1cc(F)ccc1-3		10 to 1000	1000 to 10000
C[C@@H]1CN(C(=O)C2=Cc3cc(F)ccc3-c3c(C4CCCCC4)c4ccc(C(=O)O)cc4n3C2)C[C@H](C)N1		10 to 1000	50 to 1000
COC(=O)c1ccc2c(C3CCCCC3)c3n(c2c1)C(C(=O)N1CCOCC1)CCc1ccccc1-3 (stereo not shown)		> 12500	50 to 1000
C[C@@H]1CN(C(=O)C2=Cc3ccccc3-c3c(C4CCCCC4)c4ccc(C(=O)NC5(C(=O)Nc6ncc(-c7ccc(C(=O)O)cc7)s6)CCCC5)cc4n3C2)C[C@H](C)O1		10 to 1000	50 to 1000
